Results from patent publication US11583529B2, “Treatment of inflammatory disorders” (Aldeyra Therapeutics, Inc., priority 2017, dated 2023).
Entries after “also recorded” stand apart in the source; their conditions may differ.

Columns and labels:
[1] = tested on: dextran sulfate sodium (DSS)-induced acute ulcerative colitis (UC); assay: 7-Day DSS-induced acute ulcerative colitis model; type: in vivo, female Swiss Webster mice; conditions: vs PO vehicle
[2] = tested on: rat model of diabetic macular edema (DME); assay: Rat model of diabetic macular edema (STZ-induced diabetes), intravitreal treatment; type: in vivo, male brown Norway rats
Experimental: To assess the effect of Compound I-22 in a rat model of diabetic macular edema (DME), Type 1 diabetes was induced in male brown Norway rats by intraperitoneal administration of streptozotocin (STZ; 55 mg/kg). Forty days after STZ administration, animals were assessed for the presence of diabetes by testing blood glucose levels.
Compound I-22 was supplied as a preformulated sterile solution at 5 mg/mL. The vehicle was 25% hydroxypropyl-β-cyclodextrin solution (333 mOsm/kg) in a sodium phosphate buffer, pH 7.2. Animals with diabetes were assigned to groups of ten, to receive either vehicle (HPβCD) or compound I-22.
The study consisted of three groups of male brown Norway rats. Diabetes and diabetic retinopathy were induced in Groups 2 and 3 by intraperitoneal injection of streptozotocin (STZ) on Day 0; Group 1 animals served as non-STZ (non-diabetic) untreated controls. Six and eight weeks after STZ injection, Vehicle (3.5 μL) and Compound I-22 (17.5 μg per eye; 3.5 μL) were administered intravitreally to both eyes of rats in Group 2 and Group 3, respectively. Clinical observations (daily), body weights (weekly), qualitative food consumption, and blood glucose levels (weekly) were assessed. To evaluate retinopathy, electroretinography (ERG) was conducted at Weeks 8, 9 and 10; and optical coherence tomography (OCT) and fundus fluorescein angiography (FFA) were performed pre-dose at Week 6, and at Weeks 8, 9, and 10. Animals were euthanized at 10 weeks post-STZ administration and eyes were collected for histopathological evaluation.
Type 1 diabetes was induced by intraperitoneal administration of 55 mg/kg STZ after an overnight fast. The STZ dosing solution (27.5 mg/mL) was prepared immediately prior to injection by dissolving STZ (Sigma-Aldrich Corp, St. Louis, Mo., Catalog S0130) in a citrate solution (see below) followed by filtration of the STZ solution using a 0.2 μm syringe filter (Pall Life Sciences, Ann Arbor, Mich., Catalog PN4192). The STZ dosing solution was used for injection within approximately 30 minutes after reconstitution.
Electroretinography (ERG) was performed on Days 55, 62 and 69. After an overnight dark adaption, both eyes were dilated with 1% tropicamide. Animals were anesthetized by isoflurane prior to the procedure. ERG responses to light stimuli (8.0 cd·s/m^2) were recorded by RETevet (LKC Technologies, Inc.). Implicit times and amplitudes of a-waves and b-waves were reported. There was a deviation from the protocol in which ERG was not performed prior to Test Article administration (˜Day 40). The deviation had no impact on the conclusion of the study. Baseline ERG measurements are not required to determine efficacy of the Test Article. A […] ERG assessment was added to the study.
Optical coherence tomography (OCT) and fundus fluorescein angiography (FFA) were performed on Day 41 (pre-dose) and Days 56, 63 and 70 (post-dose initiation). Both eyes were dilated with 1% tropicamide. Animals were anesthetized (by ketamine/xylazine intramuscular injection) prior to the procedures.
Retinas of both eyes in each animal were scanned by OCT (Envisu R-Class, Leica/Bioptogen). Thickness of retinal mid-layers, approximately including the outer plexiform layer (OPL), the outer nuclear layer (ONL) and the photoreceptor inner segment (IS), were measured using Bioptigen InVivoVue Reader software. For each eye, four (4) digital calipers were placed randomly on a cross-section image between OPL and IS, away from optic nerve; and measurements were exported to Microsoft Excel files. An average thickness of each retina was calculated from the four (4) measurements, using Microsoft Excel.
For FFA, ˜1.5 mL/kg fluorescein (AK-FLUOR® fluorescein injection, USP, 10%, NDC 17478253-10) was injected intraperitoneally to visualize the retinal vasculature. […]

[3] = 200 mg/kg PO BID, Days 0 through 6
[4] = 200 mg/kg PO BID, Days −3 through 6
[5] = 17.5 μg per eye IVT at 6 and 8 weeks after STZ, Week 10, vs vehicle
[6] = 17.5 μg per eye IVT, vs vehicle

For `CC(C)(O)c1cc2oc(-c3ccccc3)nc2cc1N` [Compound I-22], the Body weights ([1]; 200 mg/kg PO BID (Groups 5, 6, 7, 8, 9, and 10)) was “did not differ significantly”, the “Colon lengths, increase in the direction of normal” value [1, 3] was 41% and the “PMN percentages in the proximal colon” value [1, 3] was “significantly increased”. For the same molecule, the “distal colon edema, reduction” value [1, 3] was 78%, the “distal colon hyperplasia, reduction” value [1, 3] was 86% and the “distal colon mucosal thickness, reduction” value [1, 3] was 66%. The “full colon edema, reduction” value [1, 3] was 62%, the “proximal colon edema, reduction” value [1, 3] was 43% and the “full colon edema, reduction” value [1, 4] was 48%. The “proximal colon edema, reduction” value [1, 4] was 60%, the “proximal colon mucosal thickness, reduction” value [1, 4] was 58% and the “DAI stool consistency scores” value ([1]; Day 2, 200 mg/kg PO BID, Days 0 through 6) was “significantly reduced”. For the same molecule, the “tolerability in the retina” value ([2]; 17.5 μg per eye IVT) was “well tolerated”, the “neutrophil infiltration (histopathology score)” value [2, 5] was “significant reduction; also recorded: blocked” and the “retinal thickness (histopathology score)” value [2, 5] was “reduced retinal thickness; also recorded: statically significant decrease; also recorded: significantly reduced”. For the same molecule, the “severities of the retinal lesions (histopathology)” value ([2]; 17.5 μg per eye IVT at 6 and 8 weeks after STZ, ten weeks after STZ, vs vehicle) was “significantly diminished; also recorded: statistically significant reductions”, the retinal inflammation ([2]; 17.5 μg per eye IVT, model of DME) was “decreased” and the “ERG, OCT, or FFA” value [2, 6] was “did not show statistically significant effects”. The “diabetes-induced retinal vascular changes” value [2, 6] was “inhibited; also recorded: blocked”, the “body weights, glucose levels, ERG, OCT or FFA” value ([2]; Group 3 vs Vehicle-treated Group 2) was “No statistically significant differences” and the Mean vascular scores ([2]; Week 8, control group 3.0, p<0.05) was 2.47. The “OCT mean retinal thickness” value ([2]; Week 9, vehicle-treated group 83.3 μm) was 82.3 μm, the “Retinal thickness (OCT)” value ([2]; Weeks 9 and 10, vs vehicle) was “reduced at Weeks 9 and 10, however it was not statistically significant” and the “decrease in retinal vascularity score” value ([2]; microscopic sections of the retinas, vs vehicle, p<0.05) was 36%. For the same molecule, the ERG changes ([2]; relative to the non-diabetic control group) was “nor were there any ERG changes” and the “decrease in vascular leakage” value ([2]; vs vehicle-treated group) was “did not reach statistical significance”.
